The results in this text go back to PMC6522981, “Structure-based design generated novel hydroxamic acid based preferential HDAC6 lead inhibitor with on-target cytotoxic activity against primary choroid plexus carcinoma” (Journal of Enzyme Inhibition and Medicinal Chemistry, 2019).

Assay [1] relates to acetylated α-tubulin in HL60 cells. As to the kind of experiment: Western blot analysis of acetylated α-tubulin in HL60 cells. The following applies: 24 h. The format is cell-based. The protocol: CCHE-45 cells were treated with 100 µM of test compound for 24 h. HL60 cell line (a kind gift from Professor Azza Kamel from the National Cancer Institute, Cairo University); and is cultured in RPMI-1640 (Lonza, BE-12-702F) supplemented with 10% Fetal Bovine Serum (FBS, Gibco, 12483–020) and 100 U/ml penicillin and 100 µg/ml streptomycin (Lonza, DE17-602F), has also been treated with different concentrations of 10a in twofold serial dilutions for 24 h. Proteins were extracted from CCHE-45 cells using RIPA Lysis and Extraction Buffer (ThermoScientific, cat. No: 89901) containing 100x Halt Protease and […] Inhibitor Cocktail (ThermoScientific, cat. No. 78444). Followed by protein quantification using Bradford Reagent (Pierce Coomassie Plus (Bradford) Assay Reagent) (ThermoScientific, cat. No. 23238). A total of 50 µg proteins were loaded on a 10% SDS page using 30% Acrylamide/Bisacrylamide 19:1(Serva, cat. No. 10679.01) then transferred by semidry transfer method using Bio-Rad Trans-Blot Turbo transfer system on PVDF Transfer Membrane (ThermoScientific, cat. No. 88518). The membranes were incubated overnight at 4 °C in the primary antibodies Mouse monoclonal Anti-Beta Actin antibody (1:100, abcam, ab8224) and Mouse monoclonal Anti-acetylated α Tubulin (1:200, Santa Cruz Biotechnology, sc-23950). […]
A general note: Immunoblotting shows a protein as a band on a membrane.

Assay [2] addresses T1, human HDAC6 (Homo sapiens, UniProt Q9UBN7).
T1 sequence (Q9UBN7 1-1215): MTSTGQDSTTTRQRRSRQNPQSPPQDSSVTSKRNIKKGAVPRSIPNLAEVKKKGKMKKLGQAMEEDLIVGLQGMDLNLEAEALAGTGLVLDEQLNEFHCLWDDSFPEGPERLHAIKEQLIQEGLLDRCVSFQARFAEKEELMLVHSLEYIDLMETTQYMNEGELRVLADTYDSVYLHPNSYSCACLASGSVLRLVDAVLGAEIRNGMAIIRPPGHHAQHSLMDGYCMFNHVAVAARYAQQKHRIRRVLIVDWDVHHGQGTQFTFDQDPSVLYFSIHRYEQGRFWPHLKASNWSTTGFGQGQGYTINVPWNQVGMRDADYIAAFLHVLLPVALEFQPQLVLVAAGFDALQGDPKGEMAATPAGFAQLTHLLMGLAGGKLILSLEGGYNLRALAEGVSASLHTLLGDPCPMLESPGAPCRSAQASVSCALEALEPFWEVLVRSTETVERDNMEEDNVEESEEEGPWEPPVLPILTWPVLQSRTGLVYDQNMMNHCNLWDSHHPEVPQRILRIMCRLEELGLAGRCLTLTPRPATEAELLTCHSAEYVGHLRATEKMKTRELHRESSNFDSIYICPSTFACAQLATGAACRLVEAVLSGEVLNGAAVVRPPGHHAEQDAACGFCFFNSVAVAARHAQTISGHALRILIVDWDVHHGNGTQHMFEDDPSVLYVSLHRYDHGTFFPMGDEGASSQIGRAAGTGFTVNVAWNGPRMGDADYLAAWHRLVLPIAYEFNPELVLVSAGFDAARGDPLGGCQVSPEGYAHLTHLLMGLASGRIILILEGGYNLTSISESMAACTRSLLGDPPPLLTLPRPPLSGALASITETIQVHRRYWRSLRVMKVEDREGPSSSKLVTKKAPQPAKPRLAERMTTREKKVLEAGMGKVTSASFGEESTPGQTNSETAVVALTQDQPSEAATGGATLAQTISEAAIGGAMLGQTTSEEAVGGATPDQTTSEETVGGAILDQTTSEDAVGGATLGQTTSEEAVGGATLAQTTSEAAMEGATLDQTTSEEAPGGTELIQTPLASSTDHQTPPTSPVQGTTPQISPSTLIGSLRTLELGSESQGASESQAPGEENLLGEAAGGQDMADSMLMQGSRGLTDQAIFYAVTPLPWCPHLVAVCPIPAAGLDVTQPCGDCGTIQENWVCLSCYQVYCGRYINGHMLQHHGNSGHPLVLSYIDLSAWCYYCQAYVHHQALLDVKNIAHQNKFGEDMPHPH
In words: IC50 of the test inhibitor against HDAC6 (10-dose enzymatic assay). The settings on record: for activity at 0.0003 µM: 0.0003 µM compound; for activity at 0.001 µM: 0.001 µM compound; for activity at 0.003 µM: 0.003 µM compound; for activity at 0.01 µM: 0.01 µM compound; for activity at 0.03 µM: 0.03 µM compound; for activity at 0.1 µM: 0.1 µM compound; for activity at 0.3 µM: 0.3 µM compound; for activity at 1 µM: 1 µM compound; for activity at 3 µM: 3 µM compound; for activity at 10 µM: 10 µM compound. Set-up: purchased BPS Bioscience 50006. The format is biochemical.

The target of assay [3] is human HDAC5 (Homo sapiens, UniProt Q9UQL6). As to the kind of experiment: HDAC5 inhibitor enzymatic assay, % inhibition at fixed concentration. The following applies: read-out: %inhibition of HDACs at 10µM of test compound HDAC5.
Where [4] appears, read: Repeat1, read-out: HDAC6 % Activity Repeat1.
Where [5] appears, read: Repeat2, read-out: HDAC6 % Activity Repeat2.

Read-outs that look alike come from different tables or passages of the source.

human HDAC5, sequence (Q9UQL6 656-1122 limits assumed): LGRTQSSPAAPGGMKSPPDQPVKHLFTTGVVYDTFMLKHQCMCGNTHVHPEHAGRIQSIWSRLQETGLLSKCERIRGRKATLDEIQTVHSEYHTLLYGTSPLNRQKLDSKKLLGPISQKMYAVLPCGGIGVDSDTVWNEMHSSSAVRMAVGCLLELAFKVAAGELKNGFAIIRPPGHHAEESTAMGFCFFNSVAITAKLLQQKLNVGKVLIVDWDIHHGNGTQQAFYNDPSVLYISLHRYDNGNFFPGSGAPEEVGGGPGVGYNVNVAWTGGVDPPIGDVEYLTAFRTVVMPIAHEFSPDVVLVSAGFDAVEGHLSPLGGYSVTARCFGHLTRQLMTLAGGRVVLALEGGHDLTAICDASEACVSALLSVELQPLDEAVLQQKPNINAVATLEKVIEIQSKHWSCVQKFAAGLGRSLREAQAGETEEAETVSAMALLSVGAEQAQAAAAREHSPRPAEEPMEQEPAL

As for `O=C(CCCSc1nc2ccccc2n1Cc1ccccc1)NO` [Compound 10a, 4-((1-benzyl-1H-benzo[d]imidazol-2-yl)thio)-N-hydroxybutanamide], the “concentration with significant upregulation of acetylated α-tubulin” value in assay [1] (6.25-100 µM tested) stood at 25 µM. Besides, the “concentration from which acetylated α-tubulin is upregulated” value in assay [1] (Figure 6 legend) is at least 12.5 µM. Further, in assay [2] (setting [4]), the activity at 0.0003 µM was 100%, the activity at 0.001 µM came out at 98%, the activity at 0.003 µM was found to be 100% and the activity at 0.01 µM amounted to 95%. In addition, in assay [2] (setting [4]), the activity at 0.03 µM worked out at 93%, the activity at 0.1 µM came out at 86%, the activity at 0.3 µM worked out at 61% and the activity at 1 µM turned out to be 33%. In assay [2] (setting [4]), the activity at 3 µM is 13% and the activity at 10 µM is 5%. Moreover, in assay [2] (setting [5]), the activity at 0.0003 µM turned out to be 99%, the activity at 0.001 µM came out at 100%, the activity at 0.003 µM was 95% and the activity at 0.01 µM stood at 100%. Further, in assay [2] (setting [5]), the activity at 0.03 µM is 94%, the activity at 0.1 µM came to 82%, the activity at 0.3 µM is 63% and the activity at 1 µM was 33%. Further, in assay [2] (setting [5]), the activity at 3 µM was 14% and the activity at 10 µM was 5%. Moreover, the inhibition at 10 µM in assay [3] was found to be 4%.

By inhibition is commonly meant the share of the control response that was lost under treatment.
